Test results as given in EP0090368A1, “Anthelmintic preparations” (priority 1982, dated 1983).

Columns and labels:
[1] = Safety on oral administration to cattle (Example 12); settings: bovine, in vivo, selenium, cobalt and fenbendazole in combination (preparation of Example 3), read-out: oral administration with no adverse effect observed
Description: The safety of the composition of Example 3 on oral administration to cattle was investigated: • A total of 16 cattle were treated-orally with the preparation of Example 3. Eight Friesian heifers weighing between 330 and 420 kg were treated with the preparation at the recommended dose of 7.5 ml per 100 kg body weight. Four Friesian cattle weighing between 930 and 990 kg were treated orally with the preparation at five times the recommended dose i.e. 37.5 ml per 100 kg. A further four Friesan cattle weighing between 870 and 1030 kg were treated orally with the preparation at ten times the recommended dose i.e. […].
The cattle were observed daily for a period of 21 days following treatment for any signs at adverse effect.

[2] = per os, sheep; cited from earlier work
[3] = Toxicity in lambs, daily clinical examinations after oral treatment (Example 2); settings: sheep, in vivo, per os, given together with fenbendazole as developmental formulation, read-out: oral dose levels tolerated, no signs of drug toxicity
Description: Animals: Twenty, six to eight month old lambs were made available for the purpose of this investigation. The lambs were allocated to five groups (n = 4) on the basis of mean faecal egg counts determined on each of three successive days.
Prior to treatment, all lambs were weighed. Lambs were maintained at grass as a single group for the duration of the study.
• Group 1: Untreated controls • Group 2: Treated with 5 mg/kg fenbendazole as Panacur 2.5 % Suspension (Commercial batch, "Panacur", is a Trade Mark) Composition of Panacur 2.5 % : as described in Example 1 with the omission of the selenium and cobalt components. • Group 3: Treated with 5 mg/kg fenbendazole as a developmental formulation (see below) • Group 4: Treated with 25 mg/kg fenbendazole as a developmental formulation (see below) • Group 5: Treated with 50 mg/kg fenbendazole as a developmental formulation (see below)
Groups 4 and 5 thus received five and ten times respectively the recommended dose of fenbendazole and cobalt, and 12.5 and 25 times respectively the recommended dose of selenium.
Clinical examinations were carried out on all lambs daily post treatment for the duration of the study.

| SMILES | NOAEL at 504 h [1] [mg/kg] | LD50 [2] [mg/kg] | NOAEL [3] [mg/kg] |
| --- | --- | --- | --- |
| COC(=O)Nc1nc2ccc(Sc3ccccc3)cc2[nH]1 [Fenbendazole, 5-Phenyl-thio-2-benzimidazolecarbamic acid methylester, reference compound] | ≤ 75 | – | – |
| [Se] [elemental selenium] | ≥ 20 | 0.5 | ≥ 2 |
